Legend:
Assay in all cases: kinome screen (33PanQinase)
Type in all cases: biochemical
JNK3 = molecular target: T1, JNK3 (Homo sapiens, UniProt P53779)
T1 construct: purchased Reaction Biology Europe GmbH (formerly ProQinase)
Protocol: (§1) The Kinome Screening was performed by Reaction Biology Europe GmbH (http://reactionbiology.com; Freiburg i. Br., Germany).

PKCν = molecular target: T2, PKCν (Homo sapiens, UniProt O94806)
T2 construct: purchased Reaction Biology Europe GmbH (formerly ProQinase)
T2 sequence (O94806 1-890): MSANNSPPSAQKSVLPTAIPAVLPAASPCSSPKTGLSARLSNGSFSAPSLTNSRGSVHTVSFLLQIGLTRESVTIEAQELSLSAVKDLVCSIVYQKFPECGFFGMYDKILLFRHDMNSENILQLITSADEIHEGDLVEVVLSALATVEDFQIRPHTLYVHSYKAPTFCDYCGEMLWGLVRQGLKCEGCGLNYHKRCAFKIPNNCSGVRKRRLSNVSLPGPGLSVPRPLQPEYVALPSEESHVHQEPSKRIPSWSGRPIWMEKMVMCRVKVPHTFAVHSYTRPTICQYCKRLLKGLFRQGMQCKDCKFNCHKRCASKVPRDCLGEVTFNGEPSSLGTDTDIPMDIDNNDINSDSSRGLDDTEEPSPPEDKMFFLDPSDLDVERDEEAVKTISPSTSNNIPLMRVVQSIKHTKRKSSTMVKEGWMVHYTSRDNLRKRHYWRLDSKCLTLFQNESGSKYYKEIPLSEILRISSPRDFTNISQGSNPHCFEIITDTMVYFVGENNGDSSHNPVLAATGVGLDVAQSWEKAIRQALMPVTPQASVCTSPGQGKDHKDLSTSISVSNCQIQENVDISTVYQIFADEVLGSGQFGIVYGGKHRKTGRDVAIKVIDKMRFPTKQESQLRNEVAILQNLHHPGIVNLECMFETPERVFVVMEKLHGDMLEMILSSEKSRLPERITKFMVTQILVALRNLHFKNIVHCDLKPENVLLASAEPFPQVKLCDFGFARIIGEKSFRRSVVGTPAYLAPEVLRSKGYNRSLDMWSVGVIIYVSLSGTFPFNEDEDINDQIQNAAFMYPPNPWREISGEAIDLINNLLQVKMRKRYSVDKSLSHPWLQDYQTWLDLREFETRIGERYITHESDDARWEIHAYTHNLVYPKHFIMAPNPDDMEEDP
Protocol: as §1

RPS6KA4 = molecular target: T3, RPS6KA4 (Homo sapiens, UniProt O75676)
T3 construct: purchased Reaction Biology Europe GmbH (formerly ProQinase)
T3 sequence (O75676 whole entry): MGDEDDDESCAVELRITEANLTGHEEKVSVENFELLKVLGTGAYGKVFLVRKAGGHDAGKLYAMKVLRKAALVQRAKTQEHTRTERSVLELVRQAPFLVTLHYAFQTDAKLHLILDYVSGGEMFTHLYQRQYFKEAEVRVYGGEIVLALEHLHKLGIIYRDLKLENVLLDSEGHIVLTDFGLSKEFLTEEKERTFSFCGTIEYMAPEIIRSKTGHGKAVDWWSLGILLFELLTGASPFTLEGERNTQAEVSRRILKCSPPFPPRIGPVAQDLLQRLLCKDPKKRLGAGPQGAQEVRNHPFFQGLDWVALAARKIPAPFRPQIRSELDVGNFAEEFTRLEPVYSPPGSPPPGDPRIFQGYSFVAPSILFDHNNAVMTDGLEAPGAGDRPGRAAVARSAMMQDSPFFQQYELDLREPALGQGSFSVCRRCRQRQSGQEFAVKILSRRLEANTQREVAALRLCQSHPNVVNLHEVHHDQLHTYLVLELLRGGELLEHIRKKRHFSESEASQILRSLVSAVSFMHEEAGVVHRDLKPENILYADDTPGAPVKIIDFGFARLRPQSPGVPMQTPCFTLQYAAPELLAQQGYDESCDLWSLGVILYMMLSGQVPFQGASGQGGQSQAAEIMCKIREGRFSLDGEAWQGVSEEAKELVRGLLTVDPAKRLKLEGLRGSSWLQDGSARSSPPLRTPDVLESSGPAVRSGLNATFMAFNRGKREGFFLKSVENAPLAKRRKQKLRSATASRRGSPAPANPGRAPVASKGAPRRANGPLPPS
Protocol: as §1

TRKC = molecular target: T4, TRKC (Homo sapiens, UniProt Q16288)
T4 construct: purchased Reaction Biology Europe GmbH (formerly ProQinase)
T4 sequence (Q16288 32-839): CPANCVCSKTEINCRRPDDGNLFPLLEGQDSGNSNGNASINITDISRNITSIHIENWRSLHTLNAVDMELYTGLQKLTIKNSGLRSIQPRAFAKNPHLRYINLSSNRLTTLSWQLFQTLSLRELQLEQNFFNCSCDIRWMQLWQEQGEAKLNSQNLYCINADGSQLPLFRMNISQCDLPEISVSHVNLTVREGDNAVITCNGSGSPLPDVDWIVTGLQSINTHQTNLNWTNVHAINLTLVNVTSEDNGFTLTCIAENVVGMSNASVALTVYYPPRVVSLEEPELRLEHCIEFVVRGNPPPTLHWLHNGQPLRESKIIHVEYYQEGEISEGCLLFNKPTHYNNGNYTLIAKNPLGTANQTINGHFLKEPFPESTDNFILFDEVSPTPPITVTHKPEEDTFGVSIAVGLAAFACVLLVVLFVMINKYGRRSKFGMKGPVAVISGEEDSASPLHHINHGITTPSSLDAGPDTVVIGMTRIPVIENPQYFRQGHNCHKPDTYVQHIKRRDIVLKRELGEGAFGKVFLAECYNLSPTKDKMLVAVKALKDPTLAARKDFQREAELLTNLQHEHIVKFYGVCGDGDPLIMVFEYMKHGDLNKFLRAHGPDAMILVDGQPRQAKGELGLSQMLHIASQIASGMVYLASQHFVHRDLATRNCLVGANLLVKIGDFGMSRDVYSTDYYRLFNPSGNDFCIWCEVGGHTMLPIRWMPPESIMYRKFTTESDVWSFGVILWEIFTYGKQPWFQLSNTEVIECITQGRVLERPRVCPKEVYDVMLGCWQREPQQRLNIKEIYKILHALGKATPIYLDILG
Protocol: as §1

STK25 = molecular target: T5, STK25 (Homo sapiens, UniProt O00506)
T5 construct: purchased Reaction Biology Europe GmbH (formerly ProQinase)
T5 sequence (O00506 whole entry): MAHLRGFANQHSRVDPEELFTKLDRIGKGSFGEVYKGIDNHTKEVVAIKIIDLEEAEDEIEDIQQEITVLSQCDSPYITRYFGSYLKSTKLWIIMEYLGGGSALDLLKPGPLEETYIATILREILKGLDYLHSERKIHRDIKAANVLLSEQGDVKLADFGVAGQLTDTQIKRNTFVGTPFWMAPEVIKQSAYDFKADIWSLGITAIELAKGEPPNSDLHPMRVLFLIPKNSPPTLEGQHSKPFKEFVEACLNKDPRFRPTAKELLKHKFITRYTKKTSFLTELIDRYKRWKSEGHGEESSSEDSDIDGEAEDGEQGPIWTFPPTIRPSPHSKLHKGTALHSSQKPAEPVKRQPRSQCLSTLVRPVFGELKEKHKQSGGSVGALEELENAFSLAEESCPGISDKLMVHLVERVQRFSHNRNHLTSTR
Protocol: as §1

CDK6/CycD2 = molecular target: T6, CDK6/CycD2 (Homo sapiens, UniProt Q00534)
T6 construct: purchased Reaction Biology Europe GmbH (formerly ProQinase)
T6 sequence (Q00534 whole entry): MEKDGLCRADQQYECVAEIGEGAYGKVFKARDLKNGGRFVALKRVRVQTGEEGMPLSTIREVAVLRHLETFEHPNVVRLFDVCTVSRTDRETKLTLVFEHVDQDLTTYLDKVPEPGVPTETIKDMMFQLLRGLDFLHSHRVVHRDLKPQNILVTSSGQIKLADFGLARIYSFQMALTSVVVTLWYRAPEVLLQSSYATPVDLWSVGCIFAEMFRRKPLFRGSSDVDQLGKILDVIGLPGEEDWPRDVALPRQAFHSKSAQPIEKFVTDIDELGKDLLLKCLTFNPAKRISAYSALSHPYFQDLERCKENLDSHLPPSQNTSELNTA
T6 sequence (P30279 whole entry partner): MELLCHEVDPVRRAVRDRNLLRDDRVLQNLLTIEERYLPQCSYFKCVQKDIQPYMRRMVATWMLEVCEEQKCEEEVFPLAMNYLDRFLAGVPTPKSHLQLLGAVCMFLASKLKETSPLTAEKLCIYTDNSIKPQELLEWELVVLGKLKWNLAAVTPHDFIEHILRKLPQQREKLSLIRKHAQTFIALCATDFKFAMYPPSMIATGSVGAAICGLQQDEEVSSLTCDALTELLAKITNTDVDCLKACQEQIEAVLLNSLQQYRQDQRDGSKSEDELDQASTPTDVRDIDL
Protocol: as §1

FGFR4 = molecular target: T7, FGFR4 (Homo sapiens, UniProt P22455)
T7 construct: purchased Reaction Biology Europe GmbH (formerly ProQinase)
T7 sequence (P22455 22-802): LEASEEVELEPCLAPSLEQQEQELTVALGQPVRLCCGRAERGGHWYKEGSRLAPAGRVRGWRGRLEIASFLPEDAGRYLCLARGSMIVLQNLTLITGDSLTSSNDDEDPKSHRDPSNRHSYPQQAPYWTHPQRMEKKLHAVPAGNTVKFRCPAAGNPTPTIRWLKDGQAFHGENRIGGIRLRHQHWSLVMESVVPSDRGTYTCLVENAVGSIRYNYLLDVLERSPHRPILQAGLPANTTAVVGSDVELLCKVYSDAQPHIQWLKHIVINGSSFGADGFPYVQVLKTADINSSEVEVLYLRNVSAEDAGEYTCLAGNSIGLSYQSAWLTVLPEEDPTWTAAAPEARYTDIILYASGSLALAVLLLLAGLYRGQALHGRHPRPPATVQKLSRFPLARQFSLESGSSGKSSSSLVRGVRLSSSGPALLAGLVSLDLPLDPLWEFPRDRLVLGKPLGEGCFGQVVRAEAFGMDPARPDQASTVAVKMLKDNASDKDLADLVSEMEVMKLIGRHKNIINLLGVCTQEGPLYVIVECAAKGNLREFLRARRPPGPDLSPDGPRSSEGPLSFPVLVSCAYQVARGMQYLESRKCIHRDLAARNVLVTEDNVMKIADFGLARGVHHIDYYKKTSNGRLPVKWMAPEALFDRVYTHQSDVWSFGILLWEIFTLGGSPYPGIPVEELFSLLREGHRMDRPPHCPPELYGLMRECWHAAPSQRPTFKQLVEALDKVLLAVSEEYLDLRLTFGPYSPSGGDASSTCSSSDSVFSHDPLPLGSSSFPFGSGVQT
Protocol: as §1

BRSK1 = molecular target: T8, BRSK1 (Homo sapiens, UniProt Q8TDC3)
T8 construct: purchased Reaction Biology Europe GmbH (formerly ProQinase)
T8 sequence (Q8TDC3 1-778): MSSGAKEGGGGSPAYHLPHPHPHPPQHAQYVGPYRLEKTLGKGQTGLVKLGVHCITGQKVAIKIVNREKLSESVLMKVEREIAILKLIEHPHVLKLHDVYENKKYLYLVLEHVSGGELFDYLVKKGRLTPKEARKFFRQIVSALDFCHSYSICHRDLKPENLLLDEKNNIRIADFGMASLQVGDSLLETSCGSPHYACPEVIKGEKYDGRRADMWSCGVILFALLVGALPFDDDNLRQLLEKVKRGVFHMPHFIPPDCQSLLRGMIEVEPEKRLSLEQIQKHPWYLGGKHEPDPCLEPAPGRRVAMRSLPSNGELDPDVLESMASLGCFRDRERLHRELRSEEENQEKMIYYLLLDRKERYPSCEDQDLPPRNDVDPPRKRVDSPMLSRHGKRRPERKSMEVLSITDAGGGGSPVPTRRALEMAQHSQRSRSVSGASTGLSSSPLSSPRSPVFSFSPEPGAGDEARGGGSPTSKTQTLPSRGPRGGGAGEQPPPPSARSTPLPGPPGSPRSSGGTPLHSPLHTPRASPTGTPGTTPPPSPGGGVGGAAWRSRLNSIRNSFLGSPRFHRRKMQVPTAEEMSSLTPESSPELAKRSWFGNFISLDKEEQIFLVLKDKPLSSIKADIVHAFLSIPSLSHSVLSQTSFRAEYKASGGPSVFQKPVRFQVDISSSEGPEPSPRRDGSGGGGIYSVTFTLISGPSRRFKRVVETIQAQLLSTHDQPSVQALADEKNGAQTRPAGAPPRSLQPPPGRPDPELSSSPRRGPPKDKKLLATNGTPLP
Protocol: as §1

PIM3 = molecular target: T9, PIM3 (Homo sapiens, UniProt Q86V86)
T9 construct: purchased Reaction Biology Europe GmbH (formerly ProQinase)
Protocol: as §1

T1 sequence (P53779 whole entry): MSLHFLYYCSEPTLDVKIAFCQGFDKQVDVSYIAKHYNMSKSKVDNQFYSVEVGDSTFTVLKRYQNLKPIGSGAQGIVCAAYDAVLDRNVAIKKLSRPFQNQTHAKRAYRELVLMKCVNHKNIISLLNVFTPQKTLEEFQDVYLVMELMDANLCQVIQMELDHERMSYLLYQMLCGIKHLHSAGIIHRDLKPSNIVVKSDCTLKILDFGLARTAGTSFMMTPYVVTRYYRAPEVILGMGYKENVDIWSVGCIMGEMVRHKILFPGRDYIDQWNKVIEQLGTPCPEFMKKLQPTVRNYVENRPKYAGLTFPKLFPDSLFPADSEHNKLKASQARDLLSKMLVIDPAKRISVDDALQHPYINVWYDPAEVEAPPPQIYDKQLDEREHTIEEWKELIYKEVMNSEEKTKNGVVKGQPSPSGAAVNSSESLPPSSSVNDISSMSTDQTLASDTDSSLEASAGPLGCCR

Structure (SMILES)	residual kinase activity (JNK3; 0.3 µM)	residual kinase activity (PKCν; 0.3 µM)	residual kinase activity (RPS6KA4; 0.3 µM)	residual kinase activity (TRKC; 0.3 µM)	residual kinase activity (STK25; 0.3 µM)	residual kinase activity (CDK6/CycD2; 0.3 µM)	residual kinase activity (FGFR4; 0.3 µM)	residual kinase activity (BRSK1; 0.3 µM)	residual kinase activity (PIM3; 0.3 µM)	also measured
COc1ccnc2[nH]cc(-c3cc(N)nc(N)c3)c12 [meriolin 16]	68 % of control	32 % of control	89 % of control	36 % of control	81 % of control	76 % of control	87 % of control	97 % of control	68 % of control	residual kinase activity (JNK3; 0.03 µM): 73 % of control; residual kinase activity (PKCν; 0.03 µM): 89 % of control; residual kinase activity (RPS6KA4; 0.03 µM): 90 % of control; residual kinase activity (TRKC; 0.03 µM): 72 % of control; residual kinase activity (STK25; 0.03 µM): 99 % of control; residual kinase activity (CDK6/CycD2; 0.03 µM): 93 % of control; residual kinase activity (FGFR4; 0.03 µM): 91 % of control; residual kinase activity (BRSK1; 0.03 µM): 91 % of control; residual kinase activity (PIM3; 0.03 µM): 118 % of control
c1ccc(CNc2cc(-c3c[nH]c4ncccc34)ccn2)cc1 [meriolin 36]	54 % of control	62 % of control	71 % of control	18 % of control	33 % of control	47 % of control	98 % of control	89 % of control	85 % of control	residual kinase activity (JNK3; 3 µM): 13 % of control; residual kinase activity (PKCν; 3 µM): 17 % of control; residual kinase activity (RPS6KA4; 3 µM): 29 % of control; residual kinase activity (TRKC; 3 µM): 2 % of control; residual kinase activity (STK25; 3 µM): 6 % of control; residual kinase activity (CDK6/CycD2; 3 µM): 10 % of control; residual kinase activity (FGFR4; 3 µM): 58 % of control; residual kinase activity (BRSK1; 3 µM): 73 % of control; residual kinase activity (PIM3; 3 µM): 46 % of control

Source: PMC11167047 (Cell Death Discovery, 2024)
